Test results taken from patent publication US20030144317A1, “Novel benzoylecgonine compositions and methods for producing them” (priority 2001, published 2003).

Key:
[1] = Stability testing (initial 5% w/w water) of the composition produced in Example 4; conditions: for relative amount of component at end of reaction (start of the stability trial): composition of Example 4 (initial 5% w/w water; H2O content 4.76 w/w), b61 reads the values as % of the composition
[2] = Stability testing (absence of water) of the composition produced in Example 3; conditions: for relative amount of component at end of reaction (start of the stability trial): composition of Example 3 (no water added; H2O content 0.12 w/w), b61 reads the values as % of the composition
[3] = composition of Example 4 (initial 5% w/w water), 25° C., 13 days
[4] = composition of Example 4 (initial 5% w/w water), 40° C., 13 days
[5] = composition of Example 3 (absence of water), 25° C., 13 days
[6] = composition of Example 3 (absence of water), 40° C., 13 days

CN1[C@H]2CC[C@@H]1[C@@H](C(=O)O)[C@@H](OC(=O)c1ccccc1)C2 [BEc, benzoylecgonine]
relative amount of component, stability at 25° C. after 13 days [1, 3]: 64.02 | relative amount of component, stability at 40° C. after 13 days [1, 4]: 66.31 | relative amount of component at end of reaction (start of the stability trial) ([1]; day 16 of reaction at 50° C.): 63.8 | relative amount of component, stability at 25° C. after 13 days [2, 5]: 3.99 | relative amount of component, stability at 40° C. after 13 days [2, 6]: 4.28 | relative amount of component at end of reaction (start of the stability trial) ([2]; day 15 of reaction at 60° C.): 4.097

O=C(O)c1ccccc1 [BA, benzoic acid]
relative amount of component, stability at 25° C. after 13 days [1, 3]: 9.17 | relative amount of component, stability at 40° C. after 13 days [1, 4]: 9.68 | relative amount of component at end of reaction (start of the stability trial) ([1]; day 16 of reaction at 50° C.): 8.99 | relative amount of component, stability at 25° C. after 13 days [2, 5]: 27.35 | relative amount of component, stability at 40° C. after 13 days [2, 6]: 28.75 | relative amount of component at end of reaction (start of the stability trial) ([2]; day 15 of reaction at 60° C.): 26.05

COC(=O)C1=CC[C@@H]2CC[C@H]1N2C [Methyl Ecd]
relative amount of component, stability at 25° C. after 13 days [1, 3]: 0.86 | relative amount of component, stability at 40° C. after 13 days [1, 4]: 0.80 | relative amount of component at end of reaction (start of the stability trial) ([1]; day 16 of reaction at 50° C.): 1.00 | relative amount of component, stability at 25° C. after 13 days [2, 5]: 1.33 | relative amount of component, stability at 40° C. after 13 days [2, 6]: 1.26 | relative amount of component at end of reaction (start of the stability trial) ([2]; day 15 of reaction at 60° C.): 1.42

COC(=O)[C@H]1[C@@H](OC(=O)c2ccccc2)C[C@@H]2CC[C@H]1N2C [BME, 3-benzoyloxy-2-carbomethyoxy-8-methyl-8-azabicyclo[3.2.1]octane]
BME % (w/w), stability at 25° C. after 13 days [1, 3]: 0.07 % (w/w) | relative amount of component, stability at 25° C. after 13 days [1, 3]: 0.84 | BME % (w/w), stability at 40° C. after 13 days [1, 4]: 0.04 % (w/w) | relative amount of component, stability at 40° C. after 13 days [1, 4]: 0.46 | BME % (w/w) at end of reaction (start of the stability trial) ([1]; composition of Example 4 (initial 5% w/w water), day 16 of reaction at 50° C.): 0.08 % (w/w) | relative amount of component at end of reaction (start of the stability trial) ([1]; day 16 of reaction at 50° C.): 0.95 | BME % (w/w), stability at 25° C. after 13 days [2, 5]: 0.08 % (w/w) | relative amount of component, stability at 25° C. after 13 days [2, 5]: 1.19 | BME % (w/w), stability at 40° C. after 13 days [2, 6]: 0.06 % (w/w) | relative amount of component, stability at 40° C. after 13 days [2, 6]: 0.90 | BME % (w/w) at end of reaction (start of the stability trial) ([2]; composition of Example 3 (absence of water), day 15 of reaction at 60° C.): 0.13 % (w/w) | relative amount of component at end of reaction (start of the stability trial) ([2]; day 15 of reaction at 60° C.): 1.76
